Results on 17 compounds are retold here after patent US8906952B2, “Indole derivative or pharmaceutically acceptable salt thereof, preparation method thereof, and pharmaceutical composition for preventing or treating metabolic diseases containing same as active ingredient” (Korea Research Institute of Bioscience and Biotechnology, priority 2011, dated 2014).

For test [1], the target named is T1, human DGAT1 (Homo sapiens, UniProt O75907).
T1 construct: made in house; host or cells: sf9 insect cells
T1 sequence (O75907 1-488): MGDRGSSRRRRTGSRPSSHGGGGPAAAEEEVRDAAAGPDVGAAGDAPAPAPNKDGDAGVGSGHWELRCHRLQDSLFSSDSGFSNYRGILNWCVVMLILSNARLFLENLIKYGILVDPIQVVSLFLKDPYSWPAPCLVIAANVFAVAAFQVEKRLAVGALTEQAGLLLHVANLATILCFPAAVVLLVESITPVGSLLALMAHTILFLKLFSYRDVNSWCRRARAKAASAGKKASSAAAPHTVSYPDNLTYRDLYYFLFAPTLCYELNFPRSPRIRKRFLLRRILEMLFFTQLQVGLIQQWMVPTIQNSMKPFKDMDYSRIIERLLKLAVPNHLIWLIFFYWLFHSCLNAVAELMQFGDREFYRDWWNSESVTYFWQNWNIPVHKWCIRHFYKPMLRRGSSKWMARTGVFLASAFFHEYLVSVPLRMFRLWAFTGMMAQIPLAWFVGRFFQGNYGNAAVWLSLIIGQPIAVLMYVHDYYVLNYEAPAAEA
Put plainly: DGAT enzyme inhibition test, hDGAT1 enzyme from sf9 insect cells. Conditions: enzyme from sf9 cells overexpressing hDGAT1; read-out: hDGAT-1 (sf9) IC50. Type of test: biochemical. An excerpt: To investigate inhibitory effect of the compounds of Examples 1-33 against DGAT enzyme activity, DGAT enzyme inhibition and DGAT2 selectivity were investigated using zymogen including:
1) hDGAT1 and hDGAT2 enzymes, derived from insect cell overexpressing human DGAT1 and DGAT2 (‘sf9’), respectively,
To be specific, for the purpose of measuring human-derived DGAT enzyme inhibitory activity, using the zymogen, including enzymes derived from insect cell overexpressing human DGAT1 and DGAT2 (‘sf9’), microsomal protein isolated from human duodenal adenocarcinoma (‘Hutu 80’), and microsomal protein isolated from rat, and according to Coleman et al., (Methods Enzymol., 98-103, 1992), and substrate including 1,2-diacylglycerol(Sigma, D0138) and [^14C]palmitoyl-CoA (Amersham, CFA583), the amount of radiation of [^14C]triacylglycerol produced after enzymatic reaction was measured.
To be more specific, to the reaction solution containing 175 mM Tris-HCl (pH 8.0), 20 μl bovine serum albumin (10 mg/ml), 100 mM magnesium chloride, 30 μM [^14C]palmitoyl CoA (0.02 μCi, Amersham) and 200 μM 1,2-dioleoylglycerol, reagent dissolved in dimethylsulfoxide (10.0 μl) was added. After introducing 100 to 200 μg isolated microsomal protein and allowing the same to react at 25° C. for 10 min, the reaction was stopped by adding 1.5 ml stop solution (2-propanol:heptane:water=80:20:2, v:v:v). To isolate the product of the reaction (i.e., [^14C]triacylglycerol), 1 ml heptane and 0.5 ml distilled water were added and then decocted. After taking 1 ml supernatant, 2 ml alkaline ethanol solution (ethanol:0.5 N sodium hydroxide:water=50:10:40, v:v:v) were added and then decocted. After taking 0.65 ml supernatant from the decoction, the amount of radiation was measured with liquid scintillation counter (LSC). The DGAT inhibitory activity was calculated with Mathematical Expression 1 below:
T denotes cpm of experimental group in which the enzymatic reaction solution was treated with the sample,
C denotes cpm of control group in which the enzymatic reaction solution was not treated with the sample, and
B denotes cpm of control group treated with the sample without zymogen.

The test system of test [2] is HepG2 cells. Put plainly: DGAT inhibitory effect in HepG2 cells (triglyceride production from [14C]glycerol). Conditions: Homo sapiens; for activity at 10 µM: HepG2, 6 h, DMSO control = 100, read-out: Triglyceride production rate (%)/HepG2 cells at 10 μM; for inhibition at 10 µM: HepG2, 10 μM, read-out: biosynthesis inhibition rate of triglyceride. Type of test: cell-based. As for the experimental part:
To investigate inhibition effect on intracellular DGAT enzyme activity of the compounds obtained in Examples 1-51, intracellular DGAT enzyme activity was measured using human-derived liver HepG2 cells.
HepG2 cells were purchased from ATCC, and cultured in 37° C., 5% CO2 incubator including minimum essential medium (2 mM L-glutamine, earle's BSS adjusted to contain 1.5 g/L sodium bicarbonate, 0.1 mM nonessential amino acids, and 1 mM sodium pyruvate) added with 10% fetal bovine serum (FBS) and 1% antibiotic (100 U/ml penicillin and 100 µg/ml streptomycin).
The intracellular DGAT enzyme activity was measured based on an amount of triglycerides produced in the cultured HepG2 cells, by adding 10 μM enzyme inhibitor compounds obtained in Examples 1-51, respectively, and then determining the effect of the enzyme inhibitors according to reduction rate of the triglyceride production.
Specifically, cells were seeded 1×10^6 cell/ml per well of the 24 well culture plate, and 24 hours after incubation, medium was exchanged with FBS-free DMEM medium, and sample of 0.2 mCi [^14C]glycerol (Amersham) was added as substrate, and the reaction was allowed to occur for 6 hr. The induced production of triglyceride was catalyzed by the DGAT enzyme, and DGAT enzyme activity was determined based on the amount of production of triglyceride which was measured based on the amount of radiation. The sample was dissolved in dimethylsulfoxide (DMSO) to be used, and the control group in the triglyceride production reaction was reacted with dimethylsulfoxide only (i.e., without sample), and the amount of the triglyceride production rate was set to 100.
After the reaction completed, the substrate [^14C]glycerol which was either not absorbed into cells or not used for the reaction, were removed with phosphate-buffer-saline (PBS), and 0.5 ml extraction solvent (hexane:isopropanol=3:2, v:v) was added to extract full fat containing triglycerides. With 0.5 ml extraction solvent, extract was obtained two times for 30 min each, and 1 ml of the extract was concentrated with nitrogen gas. After removing the extraction solvent, the total fat was dissolved in organic solvent (chloroform:methanol=2:1) and spotted with thin-layer chromatography (TLC:silica gel 60F254, thickness: 0.5 mm, Merck) on the developing solvent (hexane:diethyl ether:acetic acid=80:20:1, v: v: v). Triglycerides (Rf value: 0.4) were isolated on TLC, and after exposing the TLC plate to the film with photosensitivity to radiation energy (imaging plate' Fujifilm, BMS-MS 2040) for 3 hr, the amount of [^14C] radiation of triglyceride was measured by imaging analysis (FLA 7000). The remaining cells after the extraction were dissolved in 0.3 ml 0.1 N sodium hydroxide for use in the measurement of protein concentration of the cells used for the reaction.
The experimental errors among the respective experimental groups were compensated with the experimental value which was obtained by dividing the measured radiation of triglyceride by protein concentration, and the production rate of triglyceride according to the respective compounds of Examples 1-51 are tabulated below.

Some results are limits rather than exact numbers.

By IC50 is commonly meant the concentration that gives 50% inhibition. As a reminder, the inhibition is the share of the control response that was lost under treatment. With `CC(C)CCn1cc(/C=C/C(=O)N(NC(=O)c2ccc(F)cc2)C(C)C)c2ccccc21` [Example 46, (E)-4-fluoro-N′-(3-(1-isopentyl-1H-indol-3-yl)acryloyl)-N′-isopropylbenzohydrazide], the IC50 in test [1] worked out at 1 µM. Besides, in test [2], the activity at 10 µM worked out at 63.5% and the inhibition at 10 µM was in the range of 30 to 40%.
As for `CC(C)N(NC(=O)c1ccc(F)cc1)C(=O)/C=C/c1cn(C(=O)OC(C)(C)C)c2ccccc12` [Example 44, (E)-tert-butyl 3-(3-(2-(4-fluorobenzoyl)-1-isopropylhydrazinyl)-3-oxoprop-1-enyl)-1H-indole-1-carboxylate], the IC50 in test [1] was 2.1 µM. For the same compound, in test [2], the activity at 10 µM was found to be 94.8%.
The corresponding values for `CC(C)N(NC(=O)c1cccc(OCC(N)=O)c1)C(=O)/C=C/c1cn(C(=O)OC(C)(C)C)c2ccccc12` [Example 20, (E)-tert-butyl 3-(3-(2-(3-(2-amino-2-oxoethoxy)benzoyl)-1-isopropylhydrazinyl)-3-oxoprop-1-enyl)-1H-indole-1-carboxylate] are greater than 100 µM and 109%.
Regarding `Cc1ccc(C(=O)NN(C(=O)/C=C/c2cn(C(=O)OC(C)(C)C)c3ccccc23)C(C)C)cc1` [Example 48, (E)-tert-butyl 3-(3-(1-isopropyl-2-(4-methylbenzoyl)hydrazinyl)-3-oxoprop-1-enyl)-1H-indole-1-carboxylate], the IC50 in test [1] was determined as 9.8 µM. For the same compound, the activity at 10 µM in test [2] was 96.7%.
The corresponding values for `CC(C)N(NC(=O)c1ccc(Cl)cc1)C(=O)/C=C/c1cn(C(=O)OC(C)(C)C)c2ccccc12` [Example 14, (E)-tert-butyl 3-(3-(2-(4-chlorobenzoyl)-1-isopropylhydrazinyl)-3-oxoprop-1-enyl)-1H-indole-1-carboxylate] are 8.8 µM and 84.4%.
Turning to `CC(C)N(NC(=O)c1ccccc1)C(=O)/C=C/c1cn(CC2CC2)c2ccccc12` [Example 28, (E)-N′-(3-(1-(cyclopropylmethyl)-1H-indol-3-yl)acryloyl)-N′-isopropylbenzohydrazide], the IC50 in test [1] was found to be 41.6 µM. In test [2], the activity at 10 µM came to 64.4% and the inhibition at 10 µM is 30 to 40%.
For `CC(C)N(NC(=O)c1ccc(Br)cc1)C(=O)/C=C/c1cn(C(=O)OC(C)(C)C)c2ccccc12` [Example 13, (E)-tert-butyl 3-(3-(2-(4-bromobenzoyl)-1-isopropylhydrazinyl)-3-oxoprop-1-enyl)-1H-indole-1-carboxylate], in test [1], the IC50 amounted to 20.4 µM. In addition, the activity at 10 µM in test [2] came out at 87.1%.
Consider `CC(C)N(NC(=O)c1ccccc1)C(=O)/C=C/c1cn(C(=O)CC(C)(C)C)c2ccccc12` [Example 33, (E)-N′-(3-(1-(3,3-dimethylbutanoyl)-1H-indol-3-yl)acryloyl)-N′-isopropylbenzohydrazide], for which the IC50 in test [1] was 5.3 µM. In addition, in test [2], the activity at 10 µM was determined as 78.2% and the inhibition at 10 µM is 20 to 30%.
Consider `CC(C)N(NC(=O)c1cccc(Br)c1)C(=O)/C=C/c1cn(C(=O)OC(C)(C)C)c2ccccc12` [Example 12, (E)-tert-butyl 3-(3-(2-(3-bromobenzoyl)-1-isopropylhydrazinyl)-3-oxoprop-1-enyl)-1H-indole-1-carboxylate], for which, in test [1], the IC50 was determined as 6.8 µM. For the same compound, in test [2], the activity at 10 µM was found to be 93.5%.
Regarding `COc1ccc(C(=O)NN(C(=O)/C=C/c2cn(C(=O)OC(C)(C)C)c3ccccc23)C(C)C)cc1` [Example 7, (E)-tert-butyl 3-(3-(1-isopropyl-2-(4-methoxybenzoyl)hydrazinyl)-3-oxoprop-1-enyl)-1H-indole-1-carboxylate], the IC50 in test [1] was greater than 100 µM. For the same compound, the activity at 10 µM in test [2] was determined as 85.8%.
The corresponding values for `CC(=O)n1cc(/C=C/C(=O)N(NC(=O)c2ccccc2)C(C)C)c2ccccc21` [Example 30, (E)-N′-(3-(1-acetyl-1H-indol-3-yl)acryloyl)-N′-isopropylbenzohydrazide] are 65.3 µM and 89%.
For the compound `CC(C)=CCn1cc(/C=C/C(=O)N(NC(=O)c2ccc(F)cc2)C(C)C)c2ccccc21` [Example 49, (E)-4-fluoro-N′-isopropyl-N′-(3-(1-(3-methylbut-2-enyl)-1H-indol-3-yl)acryloyl)benzohydrazide], in test [1], the IC50 was 1.5 µM. Also, the activity at 10 µM in test [2] was found to be 55.7%.
Regarding `COCCOc1cccc(C(=O)NN(C(=O)/C=C/c2cn(C(=O)OC(C)(C)C)c3ccccc23)C(C)C)c1` [Example 10, (E)-tert-butyl 3-(3-(1-isopropyl-2-(3-(2-methoxyethoxy)benzoyl)hydrazinyl)-3-oxoprop-1-enyl)-1H-indole-1-carboxylate], the IC50 in test [1] amounted to 36.4 µM. Moreover, in test [2], the activity at 10 µM worked out at 62% and the inhibition at 10 µM lay within 30 to 40%.
The corresponding values for `CC(C)N(NC(=O)c1ccccc1)C(=O)CCc1cn(C(=O)OC(C)(C)C)c2ccccc12` [Example 24, tert-butyl 3-(3-(2-benzoyl-1-isopropylhydrazinyl)-3-oxopropyl)-1H-indole-1-carboxylate] are greater than 100 µM, 60.7% and 30 to 40%.
The corresponding values for `CC(C)N(NC(=O)c1ccc(O)cc1)C(=O)/C=C/c1cn(C(=O)OC(C)(C)C)c2ccccc12` [Example 5, (E)-tert-butyl 3-(3-(2-(4-hydroxybenzoyl)-1-isopropylhydrazinyl)-3-oxoprop-1-enyl)-1H-indole-1-carboxylate] are 22.5 µM, 62.2% and 30 to 40%.
As for `CC(C)N(NC(=O)c1cccc(O)c1)C(=O)/C=C/c1cn(C(=O)OC(C)(C)C)c2ccccc12` [Example 4, (E)-tert-butyl 3-(3-(2-(3-hydroxybenzoyl)-1-isopropylhydrazinyl)-3-oxoprop-1-enyl)-1H-indole-1-carboxylate], the 50% inhibitory concentration (IC50) in test [1] was greater than 100 µM. Moreover, the activity at 10 µM in test [2] is 86.7%.
The corresponding values for `CC(C)N(NC(=O)c1ccccc1)C(=O)/C=C/c1cn(C)c2ccccc12` [Example 25] are 28.3 µM and 88.6%.
